Consider four compounds from patent US20210121527A1, “METHODS OF TREATING MINIMAL RESIDUAL CANCER” (ICAHN SCHOOL OF MEDICINE AT MOUNT SINAI, priority 2018, published 2021).

In general, IC50 refers to the concentration at which inhibition is half-maximal.

Assay [1] concerns ATF4-Luc activity. The assay can be described thus: ATF4-luc assay, tunicamycin-induced, 293 cells. The conditions noted are these: Homo sapiens, HEK293; tunicamycin-induced ATF4-Luc activity in 293 cells; read-out: ATF4-luc Cell-based IC50. As for the experimental part: ATF4-luc assay: 293 cells were transduced with an ATF4-luc expressing lentivirus (SABiosciences, Frederick, Md.) and selected in growth medium containing 1 μg/ml puromycin. To determine the effect of compounds on ER stress-induced ATF4 activity, 293-ATF4-luc cells were seeded at 15,000 cells per well in poly-D-Lysine coated 96-well plates and allowed to attach overnight. The cells were then pre-treated with test compounds for 30 minutes. Tunicamycin (2 μM) was added to induce ER stress and the plates were incubated at 37° C. for 6 hours. The culture media was then aspirated and the cells were lysed in passive lysis buffer (Promega Cat # E194A) on a plate shaker for 5 minutes. Luciferase activity was monitored using Luciferase Assay Reagent (Promega Cat # E1501) in a Wallac 1420 Victor2™ Multilabel Counter (PerkinElmer, Waltham, Mass.) and IC50 values were determined from the resulting fitted inhibition curves using un-induced (100% inhibition) and induced (0% inhibition) wells as controls.

Assay [2] has as its target T1, PERK (Homo sapiens, UniProt Q9NZJ5).
T1 construct: endogenous in cells; host or cells: GripTite 293 cells expressing GFP-eIF2a
T1 sequence (Q9NZJ5 30-1116): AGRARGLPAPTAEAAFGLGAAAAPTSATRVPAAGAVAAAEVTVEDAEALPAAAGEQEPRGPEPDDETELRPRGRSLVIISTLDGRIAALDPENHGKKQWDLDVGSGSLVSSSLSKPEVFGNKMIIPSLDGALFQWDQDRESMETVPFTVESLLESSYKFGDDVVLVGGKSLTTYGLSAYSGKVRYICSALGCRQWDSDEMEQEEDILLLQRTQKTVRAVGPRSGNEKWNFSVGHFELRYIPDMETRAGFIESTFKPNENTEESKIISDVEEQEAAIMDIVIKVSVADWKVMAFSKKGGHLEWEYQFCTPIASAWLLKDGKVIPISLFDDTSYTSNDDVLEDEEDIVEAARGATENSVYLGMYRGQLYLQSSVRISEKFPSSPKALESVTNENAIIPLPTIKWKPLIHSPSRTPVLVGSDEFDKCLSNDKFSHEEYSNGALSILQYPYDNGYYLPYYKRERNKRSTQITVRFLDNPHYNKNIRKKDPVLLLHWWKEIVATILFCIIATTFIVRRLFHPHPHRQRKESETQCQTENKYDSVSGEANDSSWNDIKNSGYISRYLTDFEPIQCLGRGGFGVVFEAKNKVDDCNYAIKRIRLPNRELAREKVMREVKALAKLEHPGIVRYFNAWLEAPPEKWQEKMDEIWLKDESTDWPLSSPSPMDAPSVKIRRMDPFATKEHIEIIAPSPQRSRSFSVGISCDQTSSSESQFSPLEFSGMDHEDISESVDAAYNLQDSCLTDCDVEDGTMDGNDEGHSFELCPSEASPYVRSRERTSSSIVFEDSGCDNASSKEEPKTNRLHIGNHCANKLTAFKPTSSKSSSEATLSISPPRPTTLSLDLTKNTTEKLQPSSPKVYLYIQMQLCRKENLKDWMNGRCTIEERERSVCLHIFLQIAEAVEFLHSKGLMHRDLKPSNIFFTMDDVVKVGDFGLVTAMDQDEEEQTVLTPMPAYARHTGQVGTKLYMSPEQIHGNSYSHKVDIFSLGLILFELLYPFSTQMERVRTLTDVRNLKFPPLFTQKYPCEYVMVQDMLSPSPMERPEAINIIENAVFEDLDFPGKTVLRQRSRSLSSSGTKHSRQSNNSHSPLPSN
The assay can be described thus: Cell-based TR-FRET assay of tunicamycin-induced eIF2a phosphorylation in 293 cells. As for the experimental part:
Cell-based TR-FRET assay: Briefly, GripTite™ 293 cells (Invitrogen) expressing GFP-eIF2a were seeded at 10,000 cells per well in 384-well plates and allowed to attach overnight. Cells were pre-treated with test compounds for 1 hour. Tunicamycin (1 μM) was added to induce PERK activity and the plates were incubated at 37° C. for 2 hours. The culture media was removed and the cells were lysed in buffer consisting of 20 mM Tris-HCl, pH 7.5, 150 mM NaCl, 5 mM EDTA, 1% NP-40, 5 mM NaF, Protease inhibitors (Sigma Cat # P8340), Phosphatase inhibitors (Sigma Cat # P2850), and 2 nM Terbium-labelled anti-phospho-eIF2 antibody (Invitrogen Cat # PM43121). Cell lysates were incubated for 2 hours in the dark at room temperature and fluorescence was monitored in an EnVison® Multilabel reader (PerkinElmer, Waltham, Mass.).
For orientation: In TR-FRET formats the signal depends on donor and acceptor labels being close together.

In assay [3] the target is T2, Recombinant human EIF2AK3 (PERK) catalytic domain (Homo sapiens, UniProt Q9NZJ5).
T2 construct: catalytic domain (amino acids 536-1116; Cat # PV5107); purchased Invitrogen (Carlsbad, Calif.) PV5107
T2 sequence (Q9NZJ5 536-1116): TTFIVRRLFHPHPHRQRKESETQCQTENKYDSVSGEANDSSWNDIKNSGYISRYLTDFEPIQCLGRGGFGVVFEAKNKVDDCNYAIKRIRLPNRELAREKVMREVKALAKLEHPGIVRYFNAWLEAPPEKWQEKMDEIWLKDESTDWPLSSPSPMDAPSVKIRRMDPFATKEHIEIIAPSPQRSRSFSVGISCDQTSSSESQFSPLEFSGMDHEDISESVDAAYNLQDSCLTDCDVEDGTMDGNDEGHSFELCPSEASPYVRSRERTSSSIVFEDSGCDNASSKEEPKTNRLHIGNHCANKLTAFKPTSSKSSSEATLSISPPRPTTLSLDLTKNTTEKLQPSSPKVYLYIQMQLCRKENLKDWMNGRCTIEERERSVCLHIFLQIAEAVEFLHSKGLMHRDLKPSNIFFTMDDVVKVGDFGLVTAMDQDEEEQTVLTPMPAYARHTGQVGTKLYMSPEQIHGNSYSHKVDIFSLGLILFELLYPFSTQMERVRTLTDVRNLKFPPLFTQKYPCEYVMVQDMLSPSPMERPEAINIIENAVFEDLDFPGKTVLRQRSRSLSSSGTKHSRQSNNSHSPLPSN
The assay is described as follows: PERK biochemical TR-FRET kinase assay using purified eIF2a as substrate. To be noted: read-out: PERK Enzyme IC50. As for the experimental part: TR-FRET kinase assays were performed in the absence or presence of inhibitors in a reaction buffer consisting of 50 mM HEPES, pH 7.5, 10 mMMgCl2, 1.0 mM EGTA, and 0.01% Brij-35, and 100-200 nM GFP-eIF2a substrate. […] Following the addition of test compound, the reaction was initiated by addition of enzyme and incubated at room temperature for 45 minutes. The reaction was stopped by addition of EDTA to a final concentration of 10 mM and Terbium-labelled phospho-eIF2α antibody was added at a final concentration of 2 nM and incubated for 90 minutes. The resulting fluorescence was monitored in an EnVison® Multilabel reader (PerkinElmer, Waltham, Mass.). TR-FRET ratios and the resulting IC50 values were determined from the fitted inhibition curves. Biochemical specificity profiling was performed at Cerep (Redmond, Wash.) and DiscoverX (San Diego, Calif.).

Regarding `Cc1cccc(CC(=O)N2CCc3c2ccc(-c2cn(C)c4ncnc(N)c24)c3F)n1` [GSK2656157, reference compound], the IC50 in assay [1] is 21 nM; in assay [2], 36 nM; in assay [3], 8 nM.
For `CNC(=O)c1nc(-c2ccc(NC(=O)[C@H](O)c3cc(F)cc(F)c3)cc2C)cnc1N` [LY2, 3-amino-6-[4-[[(2R)-2-(3,5-difluorophenyl)-2-hydroxy-acetyl]amino]-2-methyl-phenyl]-N-methyl-pyrazine-2-carboxamide], the values for the half-maximal inhibitory concentration (IC50) in assay [1], in assay [2] and in assay [3] were 56 nM, 117 nM and 2 nM, respectively.
For `Cc1cc(NC(=O)[C@H](O)c2cc(F)cc(F)c2)ccc1-c1cnc(N)c(C(=O)NC(C)C)c1` [LY4, 2-amino-5-[4-[[(2R)-2-(3,5-difluorophenyl)-2-hydroxy-acetyl]amino]-2-methyl-phenyl]-N-isopropyl-pyridine-3-carboxamide] the same measures were 48 nM, 54 nM and 2 nM.
As for `Cc1cc(NC(=O)[C@H](O)c2cccc(F)c2)ccc1-c1cn(C)c2ncnc(N)c12` [LY3, (2R)-N-[4-(4-amino-7-methyl-pyrrolo[2,3-d]pyrimidin-5-yl)-3-methyl-phenyl]-2-(3-fluorophenyl)-2-hydroxy-acetamide], the IC50 in assay [1] amounted to 16 nM; in assay [2] it was 26 nM; in assay [3], 2 nM.
